Marks after values point to notes of the source that are not given here.
How the values were obtained:
[1] = target: T1, immobilized human serum albumin (Homo sapiens, UniProt P02768); assay: Albumin binding: affinity chromatography on columns with immobilized human serum albumin (net retention time); details: isolated binders; HSA column 25° C., PBS pH 7.4/isopropanol gradient
T1 construct: purchased Chiralpak (Chiraltech) 34712
Description: In order to identify suitable binder molecules, which when bound to a peptide, such as an insulin, are able to improve the half-life in plasma and to prolong the profile of action, a system was established based on affinity chromatography with serum albumin columns, i.e. columns with immobilized serum albumin.
The net retention time of the binders (samples) was calculated according to the following formula: Net retention time=RetTimeSample−RetTimet0 marker
• Instrument: Waters Alliance 2795/Waters PDA 2996 or Waters H-Class UPLC equipped with a Waters Acquity photodiode-array detector • Software: Waters Empower 3 • Column: […]® HSA 50×4 mm; 5 μm Particle size • Chiraltech Order Numbers: HSA: 34712 • Eluent A: Phosphate Buffer saline (PBS) at pH=7.4 • Gibco PBS pH7.4 (10×) Phosphate Buffered Saline 500 ml; • Order Number: 70011-036 (500 ml) • Eluent B: Isopropanol • Fisher Order Number: A461-1 (10 • Gradient:
• Column temperature: 25° C. • Flow rate: 1.0 ml/min • Detection: λ=220 nm • Injection volume: 20 μL • Sample Conc.: 1 mg/ml insulin solution in PBS for insulin samples • 5 μL of 10 mM DMSO stock solution (DMSO evaporated and re-dissolved in 200 μL i-propanol/water 1:1 v/v) for isolated binder samples (250 μM, 0.2 mg/ml at 800 Da MolWeight) • t0 marker Sodium Nitrate (NaNO3) solution in water, 0.05 mg/ml • Diluted from aqueous 1 mg/ml stock solution (Fluka Order Number: 74246-100ML) • Reported Value Net retention time of sample: RetTime Sample−RetTime t0 marker
Affinity chromatography was carried out i) for insulin conjugates according to Examples 3.3 and 3.4 on a Waters Alliance Separation Module 2695 equipped with a Waters photodiode-array detector 2996 or Waters H-Class UPLC equipped with a Waters Acquity photodiode-array detector and ii) for isolated binders according to Example 2.11 on a Waters Alliance Separation Module 2795 equipped with a Waters photodiode-array detector 2996 or Waters H-Class UPLC equipped with a Waters Acquity photodiode-array detector.
Columns with immobilized human serum albumin (50×4 mm; 5 μm particle size) were purchased from Chiralpak and used for separations.
The columns with immobilized serum albumin were kept at 25° C. during the LC run, UV detection was carried out at 220 nm and injection volume was 20 μL.
The net retention time of the samples was reported according to Net retention time=RetTime Sample−RetTime t0 marker

[2] = target: T2, insulin receptor isoform B (IR-B) (Homo sapiens, UniProt P06213); assay: Insulin receptor autophosphorylation assay (In-Cell Western, CHO cells, Example 8B); format: cell-based; set-up: expressed in transfected cells; host or cells: CHO cells; details: relative to human insulin
[3] = target: T2, insulin receptor isoform B (IR-B); assay: Insulin receptor binding affinity assay of insulin analogs (Example 8A, SPA competition binding); set-up: expressed in transfected cells; host or cells: CHO cells overexpressing the IR; isolated plasma membranes; details: relative to human insulin; a value of 0 means below the detection limit
Description: Methods for determining the binding affinity of an insulin analog to an insulin receptor are well known in the art. […] The insulin receptor can be present in a membrane of a cell, e.g. of CHO (Chinese Hamster Ovary) cell, which overexpresses a recombinant insulin receptor. In an embodiment, the insulin receptor binding affinity is determined as described in the Examples section.
Insulin receptor binding affinity for the analogs listed in Table 4 was determined as described in Hartmann et al. (Effect of the long-acting insulin analogs glargine and degludec on cardiomyocyte cell signaling and function. Cardiovasc Diabetol. 2016; 15:96). Isolation of insulin receptor embedded plasma membranes (M-IR) and competition binding experiments were performed as previously described (Sommerfeld et al., PLoS One. 2010; 5 (3): e9540). Briefly, CHO-cells overexpressing the IR were collected and re-suspended in ice-cold 2.25 STM buffer (2.25 M sucrose, 5 mM Tris-HCl pH 7.4, 5 mM MgCl2, complete protease inhibitor) and disrupted using a Dounce homogenizer followed by sonication. The homogenate was overlaid with 0.8 STM buffer (0.8 M sucrose, 5 mM Tris-HCl pH 7.4, 5 mM MgCl2, complete protease inhibitor) and ultra-centrifuged for 90 min at 100,000 g. Plasma membranes at the interface were collected and washed twice with phosphate buffered saline (PBS). The final pellet was re-suspended in dilution buffer (50 mM Tris-HCl pH 7.4, 5 mM MgCl2, complete protease inhibitor) and again homogenized with a Dounce homogenizer. Competition binding experiments were performed in a binding buffer (50 mM Tris-HCl, 150 mM NaCl, 0.1% BSA, complete protease inhibitor, adjusted to pH 7.8) in 96-well microplates. In each well 2 μg isolated membrane was incubated with 0.25 mg wheat germ agglutinin polyvinyltoluene polyethylenimine scintillation proximity assay (SPA) beads. […] The radioactivity was measured at equilibrium in a microplate scintillation counter (Wallac Microbeta, Freiburg, Germany).”

[4] = target: Insulin degrading enzyme, IDE (Homo sapiens, UniProt P14735); assay: In vitro proteolytic stability against insulin degrading enzyme (Example 9); format: in vitro ADME; details: 37° C., 2 μM
Description: (§1) The stability determination was done using appropriate time points (for SIF and SGF 15, 30, 60, 120 and 240 minutes; for proteases 15, 30, 60 and 120 minutes). The incubation was done at 37° C. and the % of remaining parent compound was calculated in reference to a TO time point.
(§2) For the determination of the parent compound an appropriate bioanalytical LC-MS/MS or LC-HRMS method was used, using the supernatant, after protein precipitation with ethanol (1 eq. v/v) and a centrifugation step.
(§3) Compounds were dissolved in diluted hydrochloric acid at a final concentration of 40 μM. The compound concentration in the assay was 2 μM. A 1:20 dilution of the working solution was done into the protease buffer and samples are then incubated at 37° C., under stirring. At the appropriate time point and aliquot was taken, the reaction was quenched ethanol (1 eq. v/v), than centrifuged. The supernatant was analyzed.

[5] = target: T3, simulated gastric fluid (pepsin) (Sus scrofa, UniProt P00791); assay: In vitro stability in simulated gastric fluid (Example 9); format: in vitro ADME, porcine; details: 37° C., 2 μM
T3 construct: from tissue; host or cells: porcine stomach mucosa
Description: Two grams of sodium chloride and 3.2 g of purified pepsin (from porcine stomach mucosa, with an activity of 800 to 2500 units per mg of protein) were dissolved in 7.0 ml of hydrochloric acid. The volume was adjusted with water up to 1000 ml.
as §1, §2, §3

[6] = target: α-Chymotrypsin (Bos taurus, UniProt P00766); assay: In vitro proteolytic stability against α-chymotrypsin (Example 9); format: in vitro ADME; details: 37° C., 2 μM
Description: as §1, §2, §3

[7] = target: Cathepsin D (Homo sapiens, UniProt P07339); assay: In vitro proteolytic stability against cathepsin D (Example 9); format: in vitro ADME; details: 37° C., 2 μM
Cathepsin D, sequence (P07339 65-412, species assumed): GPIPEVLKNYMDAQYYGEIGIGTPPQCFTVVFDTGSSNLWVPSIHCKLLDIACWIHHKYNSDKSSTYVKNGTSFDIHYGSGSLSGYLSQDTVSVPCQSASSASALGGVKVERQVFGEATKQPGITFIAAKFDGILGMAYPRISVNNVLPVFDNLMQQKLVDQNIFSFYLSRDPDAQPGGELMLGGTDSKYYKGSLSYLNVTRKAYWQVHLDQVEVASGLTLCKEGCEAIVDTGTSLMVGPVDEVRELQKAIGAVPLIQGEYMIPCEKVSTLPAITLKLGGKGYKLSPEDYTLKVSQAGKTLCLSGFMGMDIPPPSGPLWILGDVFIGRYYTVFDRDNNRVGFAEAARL
Description: as §1, §2, §3

T1 sequence (P02768 25-609): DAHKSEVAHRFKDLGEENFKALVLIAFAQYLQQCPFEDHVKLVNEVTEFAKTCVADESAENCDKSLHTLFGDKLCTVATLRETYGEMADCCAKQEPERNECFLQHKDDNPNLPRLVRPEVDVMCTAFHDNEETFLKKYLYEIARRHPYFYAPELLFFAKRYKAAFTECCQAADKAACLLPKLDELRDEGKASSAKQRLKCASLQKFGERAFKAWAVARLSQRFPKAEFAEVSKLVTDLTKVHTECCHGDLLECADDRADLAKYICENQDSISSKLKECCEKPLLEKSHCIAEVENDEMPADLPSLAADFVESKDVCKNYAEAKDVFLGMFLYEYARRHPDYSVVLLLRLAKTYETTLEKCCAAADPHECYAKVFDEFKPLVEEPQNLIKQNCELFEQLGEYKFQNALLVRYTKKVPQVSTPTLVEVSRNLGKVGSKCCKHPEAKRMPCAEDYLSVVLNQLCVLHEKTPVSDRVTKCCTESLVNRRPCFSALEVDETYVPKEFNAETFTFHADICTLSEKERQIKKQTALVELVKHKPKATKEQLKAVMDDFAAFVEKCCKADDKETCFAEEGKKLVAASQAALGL
T2 sequence (P06213 28-758 limits assumed): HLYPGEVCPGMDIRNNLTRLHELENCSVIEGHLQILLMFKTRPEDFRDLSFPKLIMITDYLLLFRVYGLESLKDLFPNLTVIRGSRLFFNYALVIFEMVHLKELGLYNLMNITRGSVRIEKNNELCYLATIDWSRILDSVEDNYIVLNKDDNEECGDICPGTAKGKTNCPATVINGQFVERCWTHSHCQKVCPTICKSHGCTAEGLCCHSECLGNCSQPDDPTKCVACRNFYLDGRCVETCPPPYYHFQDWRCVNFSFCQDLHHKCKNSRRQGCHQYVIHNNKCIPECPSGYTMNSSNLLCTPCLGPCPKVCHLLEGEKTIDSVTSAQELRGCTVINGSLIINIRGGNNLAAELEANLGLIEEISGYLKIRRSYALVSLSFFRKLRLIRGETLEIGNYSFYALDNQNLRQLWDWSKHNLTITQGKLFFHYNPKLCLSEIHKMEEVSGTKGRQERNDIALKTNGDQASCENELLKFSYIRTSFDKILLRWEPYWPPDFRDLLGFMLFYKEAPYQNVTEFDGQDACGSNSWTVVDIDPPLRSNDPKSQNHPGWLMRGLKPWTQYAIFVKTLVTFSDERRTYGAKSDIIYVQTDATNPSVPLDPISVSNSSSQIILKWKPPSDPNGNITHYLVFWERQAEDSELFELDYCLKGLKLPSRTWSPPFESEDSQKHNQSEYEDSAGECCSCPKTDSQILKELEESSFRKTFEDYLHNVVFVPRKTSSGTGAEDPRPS
T2 sequence (P06213 763-1382 limits assumed): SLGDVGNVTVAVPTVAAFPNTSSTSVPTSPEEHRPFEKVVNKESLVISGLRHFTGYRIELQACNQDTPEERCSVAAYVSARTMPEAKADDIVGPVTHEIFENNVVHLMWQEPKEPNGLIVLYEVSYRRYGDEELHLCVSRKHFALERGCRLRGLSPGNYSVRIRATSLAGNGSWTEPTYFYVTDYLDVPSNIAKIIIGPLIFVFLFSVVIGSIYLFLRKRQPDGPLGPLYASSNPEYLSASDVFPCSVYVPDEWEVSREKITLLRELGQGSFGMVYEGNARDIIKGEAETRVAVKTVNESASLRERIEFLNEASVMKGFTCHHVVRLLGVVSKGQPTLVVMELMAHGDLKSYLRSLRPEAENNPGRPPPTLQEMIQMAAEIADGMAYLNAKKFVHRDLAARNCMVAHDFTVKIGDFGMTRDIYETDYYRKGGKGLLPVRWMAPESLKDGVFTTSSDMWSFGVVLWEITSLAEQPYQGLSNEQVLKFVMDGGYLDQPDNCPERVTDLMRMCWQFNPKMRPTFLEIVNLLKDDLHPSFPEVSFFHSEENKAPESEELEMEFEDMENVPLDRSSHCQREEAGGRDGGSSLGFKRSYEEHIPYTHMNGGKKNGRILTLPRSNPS
T3 sequence (P00791 60-385): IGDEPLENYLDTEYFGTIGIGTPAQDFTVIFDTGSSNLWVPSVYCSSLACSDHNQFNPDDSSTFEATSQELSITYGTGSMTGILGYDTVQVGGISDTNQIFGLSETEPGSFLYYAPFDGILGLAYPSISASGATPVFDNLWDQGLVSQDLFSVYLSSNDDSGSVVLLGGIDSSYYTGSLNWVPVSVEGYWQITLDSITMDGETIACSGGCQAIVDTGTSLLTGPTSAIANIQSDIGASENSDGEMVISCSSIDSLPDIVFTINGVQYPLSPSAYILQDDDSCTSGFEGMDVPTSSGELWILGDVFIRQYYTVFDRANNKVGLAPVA

SMILES	NRT [min] (net retention time on columns with immobilized human serum albumin) [1]	autophosphorylation activity [2]	Insulin-receptor binding affinity [3]	Percent remaining insulin analog, Insulin degrading enzyme, IDE (30 minutes) [4] [%]	Percent remaining insulin analog, Gastric fluid (30 minutes) [5] [%]	Percent remaining insulin analog, α-Chymotrypsin (120 minutes) [6] [%]	Percent remaining insulin analog, Cathepsin D (30 minutes) [7] [%]
O=C(O)CCCCCCCCCCCOc1ccc(CCc2ccc(S(=O)(=O)Nc3ncc(C(=O)NCCOCCOCC(=O)NCCOCCOCC(=O)O)cn3)cc2)cc1 [Binder 3]	17.51	0.34	0.24				
O=C(O)CCCCCCCCCCCCCCCCCc1ccc(S(=O)(=O)Nc2ncc(C(=O)NCCOCCOCC(=O)NCCOCCOCC(=O)O)cn2)cc1 [Binder 4]	15.75	0.4	0.57				
O=C(O)CCCCCCCCCc1ccc(CCOc2ccc(S(=O)(=O)Nc3ncc(C(=O)NCCOCCOCC(=O)NCCOCCOCC(=O)O)cn3)cc2)cc1 [Binder 10]	15.65	0.31	0.37				
O=C(O)CCCCCCCCCCCCCc1ccc(Oc2ccc(S(=O)(=O)Nc3ncc(C(=O)NCCOCCOCC(=O)NCCOCCOCC(=O)O)cn3)cc2)cc1 [Binder 11]	14.52	0.06	0.01	12			
O=C(O)CCCCCCCCCCCCCCc1cc(Oc2ccc(S(=O)(=O)Nc3ncc(C(=O)NCCOCCOCC(=O)NCCOCCOCC(=O)O)cn3)cc2)ccc1F [Binder 13]	15.29	0.1	0.11				
O=C(O)CCCCCCCCCCCOc1ccc(S(=O)(=O)Nc2ncc(C(=O)NCCOCCOCC(=O)NCCOCCOCC(=O)O)cn2)cc1 [Binder 16]	11.88	0.29	0.36	88			
O=C(O)CCCCCCCCCCCOc1ccc(S(=O)(=O)Nc2ccc(C(=O)NCCOCCOCC(=O)NCCOCCOCC(=O)O)cn2)cc1 [Binder 18]	12.37	0.18	0.23				
O=C(O)CCCCCCCCCOc1ccc(S(=O)(=O)Nc2ccc(C(=O)NCCOCCOCC(=O)NCCOCCOCC(=O)O)cn2)cc1 [Binder 19]	10.82	0.32		98	0	30	0
O=C(O)CCCCCCCCCCCCCc1ccc(S(=O)(=O)Nc2ccc(C(=O)NCCOCCOCC(=O)NCCOCCOCC(=O)O)cn2)cc1 [Binder 20]	14.8	0.28	0.4				
O=C(O)CCCCCCCCCCCCCCCc1cc(Oc2ccc(S(=O)(=O)Nc3ccc(C(=O)NCCOCCOCC(=O)NCCOCCOCC(=O)O)cn3)cc2)ccc1F [Binder 23]	15.61	0.37	0.56	80			
O=C(O)CCCCCCCCCCCOc1ccc(CCc2ccc(S(=O)(=O)Nc3ccc(C(=O)NCCOCCOCC(=O)NCCOCCOCC(=O)O)cn3)cc2)cc1 [Binder 25]	17.48	0.03	0.02				
O=C(O)CCCCCCCCCc1ccc(CCOc2ccc(S(=O)(=O)Nc3ccc(C(=O)NCCOCCOCC(=O)NCCOCCOCC(=O)O)cn3)cc2)cc1 [Binder 26]	14.98	0.07	0.01				
O=C(O)CCCCCCCCCCCc1cc(Oc2ccc(S(=O)(=O)Nc3ncc(C(=O)NCCOCCOCC(=O)NCCOCCOCC(=O)O)cn3)cc2)ccc1F [Binder 28]	15.39	0.11	0.12				
O=C(O)CCCCCCCCCCCCCc1ccc(S(=O)(=O)Nc2ccc(C(=O)NCCOCCOCC(=O)NCCOCCOCC(=O)O)cn2)cc1 [Binder 30]	14.36	0.01	0**				
O=C(O)CCCCCCCCCCCCCCCCCc1ccc(S(=O)(=O)Nc2ccc(C(=O)NCCOCCOCC(=O)NCCOCCOCC(=O)O)cn2)cc1 [Binder 31]	15.77	0.13	0.12				
O=C(O)CCCCCCCCCCCCCOc1ccc(S(=O)(=O)Nc2ccc(C(=O)NCCOCCOCC(=O)NCCOCCOCC(=O)O)cn2)cc1 [Binder 32]	13.9	0.04	0				
O=C(O)CCCCCCCCCCCCCOc1ccc(S(=O)(=O)Nc2ncc(C(=O)NCCOCCOCC(=O)NCCOCCOCC(=O)O)cn2)cc1 [Binder 33]	13.57	0.02	0.01				
O=C(O)CCCCCCCCCCCCCCCOc1ccc(S(=O)(=O)Nc2ccc(C(=O)NCCOCCOCC(=O)NCCOCCOCC(=O)O)cn2)c(Cl)c1Cl [Binder 36]	13.89	0.23	0.17				
O=C(O)CCCCCCCCCCCCCCCOc1ccc(S(=O)(=O)Nc2ccc(C(=O)NCCOCCOCC(=O)NCCOCCOCC(=O)O)cn2)cc1F [Binder 39]	13.68	0.02	0				
O=C(O)CCCCCCCCCCCc1cccc(S(=O)(=O)Nc2ccc(C(=O)NCCOCCOCC(=O)NCCOCCOCC(=O)O)cn2)c1 [Binder 40]	11.44	0.01	0.01				
